Patent US20170216295A1, “CCR9 ANTAGONIST COMPOUNDS” (Merck Sharp & Dohme Corp., priority 2014, published 2017)
pIC50: −log10 of the molar value.

Tests used:
Molt-4 cells = assay: Chemotaxis assay of Molt-4 cells towards TECK; assay type: cell-based; conditions: Molt-4 cells in HBSS buffer with 0.1% BSA, TECK at EC80
Experimental: Molt-4 cells were harvested and re-suspended in HBSS buffer with 0.1% BSA or in 100% human serum. Cell suspensions were mixed with compound solutions for 10 min and then seeded onto the upper chamber of the ChemoTX chemotaxis plates with 5 μm pore size polycarbonate membrane from NeuroProbe (Gaithersburg, Md.). EC80 concentration of TECK was applied in the bottom chamber. After 2 hours of incubation at 37° C., the assay was terminated by removing the upper chamber. The cells migrated into the bottom chamber were quantified with CyQUANT solution from Invitrogen (Grand Island, N.Y.).

[1] = Human liver microsome clearance; assay type: in vitro ADME; conditions: second value of RLM/HLM cell
[2] = Rat liver microsome clearance; assay type: in vitro ADME; conditions: for RLM CL (rat liver microsome hepatic clearance): first value of RLM/HLM cell; for Rat Microsome In Vitro CLint: 2 μM, 1 mg/mL rat hepatic microsomes, NADPH
Experimental: Microsomal In-Vitro Clearance:
The test articles (2 μM) were incubated for one hour in 1 mg/mL rat hepatic microsomes with 2 mM NADPH at 37° C. with aliquots removed at t=0, 15, 30 and 60 minutes. Incubations were terminated at the specified times by protein precipitation, and samples were centrifuged. Resultant supernants were analyzed by LC-MS/MS for the amount of incubated compound remaining, and the half life (t1/2) and intrinsic microsomal clearance rate (CLint) of each compound was calculated.

[3] = pH-solubility (high-throughput, buffers); assay type: physicochemical; conditions: for Sol. pH 4: 1000 ug compound in 1 mL pH 4 buffer; for Sol. pH 7: 1000 ug compound in 1 mL pH 7 buffer; for Sol. pH 9: 1000 ug compound in 1 mL pH 9 buffer; for Solubility pH 4: pH 4 (Table 6); for Solubility pH 7.4: pH 7.4 (Table 6); for Solubility pH 9: pH 9 (Table 6)
Experimental: Solubility of representative acidic triazoles was measured in 3 buffer systems (pH 4, 7.4 and 9) using an in-house high-throughput solubility method. A stock solution of test article was prepared in DMA (20 mg/ml) and spiked into each buffer system (20× dilution) to target 1 mg/ml concentration. The samples were vortexed briefly and equilibrated for 24 hr at RT. Samples were then filtered using 0.22u PVDF membrane filters and analyzed for drug concentration using HPLC.

CCR9 receptor = biological target: T1, CCR9 receptor (Homo sapiens, UniProt P51686); assay: Calcium mobilization (Ca FLIPR) assay, antagonist mode vs TECK; assay type: cell-based; conditions: for LipE: LipE = pIC50-clogD; for pIC50: cells expressing CCR9, TECK at EC80 0.01 uM, read-out: CCR9 Ca2+ IC50
T1 sequence (P51686 1-369): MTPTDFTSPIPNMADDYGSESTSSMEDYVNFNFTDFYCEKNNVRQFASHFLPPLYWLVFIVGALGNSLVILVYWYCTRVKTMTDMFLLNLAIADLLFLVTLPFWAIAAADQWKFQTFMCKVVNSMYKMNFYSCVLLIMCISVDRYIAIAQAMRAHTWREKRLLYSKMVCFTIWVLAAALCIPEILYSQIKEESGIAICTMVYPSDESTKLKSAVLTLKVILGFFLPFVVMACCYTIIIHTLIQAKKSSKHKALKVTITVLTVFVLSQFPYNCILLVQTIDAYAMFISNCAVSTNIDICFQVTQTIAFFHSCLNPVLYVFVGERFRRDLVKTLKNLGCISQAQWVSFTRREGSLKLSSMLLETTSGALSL
Experimental: Calcium Mobilization Assay:
Cells expressing CCR9 receptor (MultiSpan, Hayward, Calif.) were seeded in 384-well plates. Ca^2+ assays were conducted after overnight culture in the plates according to the manufacturer's protocol using Screen Quest™ Fluo-8 no wash kit (AAT Bioquest, Sunnyvale, Calif.). Dye loading buffer was added to the cells and incubated for 45 minutes at 37° C. followed by 15 minutes incubation at room temperature. Compounds in the presence of 0.1% DMSO were applied to the cells during calcium flux measurement. Calcium flux was monitored for 90 seconds with compound application after 10 seconds. For antagonist mode, cells were preincubated with the compound at room temperature for 10 minutes before the application of the control agonist TECK (Preprotech, Rocky Hill, N.J.) at EC80 concentration of 0.01 uM obtained from dose-response curves of control agonist.

Rat PK (i.v./p.o.) = assay type: in vivo; conditions: for Rat In vivo CL: i.v.; for increase in oral bioavailability: compound 39 vs compound 6, compound 42 vs compound 40; for % F (p.o.) / Oral AUC/D: oral; for % F (p.o.): 6: co-solvent (pH 9), 39, 40, 42: co-solvent + surfactant (pH 9); for Oral AUC/D: formulation as in Table 6
Experimental: Sprague Dawley Rats (n=3) were dosed both intravenously and orally with a solution formulation followed by plasma collection at time points providing sufficient coverage of the absorption, distribution, metabolism and excretion phases of the test article. Test article concentrations at each time point were determined by LC-MS detected bioanalytical analysis. Non-compartmental pharmacokinetic analysis of the intravenous bioanalytical data provided area under the curve, clearance, volume of distribution, and terminal half life parameters while similar analysis of plasma samples from animals dosed orally provided area under the curve, bio-available fraction and oral terminal half life pharmacokinetic parameters.
Rats (n of 3) were dosed both intravenously and orally with the various compounds. Plasma samples were collected at time points chosen to provide sufficient coverage of the absorption, distribution, metabolism and excretion phases of the test compound. LC-MS detected bioanalytical analysis was performed on the plasma samples utilizing a standard curve and quality control samples to provide enough precision and accuracy to determine the concentrations test article for plasma from each time point. Non-compartmental pharmacokinetic analysis of the intravenous bioanalytical data provided area under the curve, clearance, volume of distribution, terminal half life parameters while similar analysis of plasma samples from animals dosed orally provided area under the curve, bio-available fraction and oral terminal half life pharmacokinetic parameters (see FIG. 1).

[4] = Rat plasma protein binding (equilibrium dialysis); assay type: in vitro ADME; conditions: fraction unbound
Experimental: Plasma and Microsome Protein Binding:
Protein binding was measured via high throughput equilibrium dialysis with the HTDialysis device fitted with a 12,000 to 14,000 Da molecular weight cutoff membrane. Rat plasma or 1 mg/mL rat hepatic microsomes spiked with test article were dialyzed vs. phosphate buffer for 6 hours. Aliquots were removed from both sides of the membrane and diluted with equal volumes of the opposite matrix. Following protein precipitation and centrifugation, the resultant matrix matched supernatants were analyzed by LC-MS to compare the plasma or microsome dialysate test article signal to the buffer signal. Test article stability was monitored during the course of the assay.

[5] = In-vitro precipitation time in simulated gastric and intestinal fluids; assay type: physicochemical; conditions: oral dosing solution
Experimental: Dosing solutions at 1 mg/mL for rat PK studies were prepared using either a pH+co-solvent approach or pH+cosolvent+surfactant approach. The total amounts of cosolvent and surfactant used in the solution formulations ranged from 5-8% v/v and q.s. with pH 9 phosphate buffer. Solutions were assessed for their potential for in-vivo precipitation using an in-vitro dilution test (1:1, 1:4 and 1:9) in simulated gastric and intestinal fluids.

Row | Structure (SMILES) | pIC50 (Molt-4 cells; Homo sapiens) | HLM CL (human liver microsome hepatic clearance) [1] [mL/min/kg] | RLM CL (rat liver microsome hepatic clearance) [2] [mL/min/kg] | Sol. pH 4 [3] | Sol. pH 7 [3] | Sol. pH 9 [3] | LipE (CCR9 receptor) | pIC50 (CCR9 receptor) | Rat Plasma Protein Binding (PPB) Fu [4] | Rat Microsome In Vitro CLint [2] [mL/min/kg] | Rat In vivo CL as % Hepatic Blood Flow (Rat PK (i.v./p.o.)) [%] | Rat In vivo CL (Rat PK (i.v./p.o.)) [mL/min/kg] | other results
1 | Cc1nc2ncnn2c(O)c1Cc1ccc(C(C)(C)C)cc1 [Compound 11] | 6.32 | 19 | 51 | 13 ug/mL | 136 ug/mL | > 1000 ug/mL | 4.4 |  |  |  |  |  | Vd (in words) (Rat PK (i.v./p.o.)): moderate; half-life (in words) (Rat PK (i.v./p.o.)): short; in vivo CL (in words) (Rat PK (i.v./p.o.)): high; oral bioavailability (in words) (Rat PK (i.v./p.o.)): low
2 | CCOc1nc2nc(CC)c(Cc3ccc(C(C)(C)C)cc3)c(O)n2n1 [Compound 19] | 6.82 | 11 | 16 | 79 ug/mL | 117 ug/mL | 914 ug/mL | 4.2 | 8.10 |  |  |  |  | 
3 | CC(C)c1nc2ncnn2c(O)c1Cc1ccc(C(C)(C)C)cc1 [Compound 23] | 6.47 | 13 | 44 | 2 ug/mL | 7 ug/mL | 358 ug/mL | 4.0 | 7.28 |  |  |  |  | 
4 | CCc1nc2ncnn2c(O)c1Cc1ccc(C2(C)CCOCC2)cc1 [Compound 35] | 6.42 | 17 | 37 | >1000/>1000/>1000 ug/mL | >1000/>1000/>1000 ug/mL | >1000/>1000/>1000 ug/mL | 5.7 | 7.66 |  |  |  |  | 
5 | CCc1nc2ncnn2c(O)c1Cc1ccc(C(C)(C)COC)cc1 [Compound 36] | 7.22 | 20 | 49 | 62 ug/mL | > 1000 ug/mL | > 1000 ug/mL | 5.9 | 7.89 |  |  |  |  | 
6 | COCc1nc2nc(O)c(Cc3ccc(C(C)(C)C)cc3)c(COC)n2n1 [Compound 38, 6-(4-(tert-butyl)benzyl)-2,7-bis(methoxymethyl)-[1,2,4]triazolo[1,5-a]pyrimidin-5-ol] |  | 5 | 15 | 132 ug/mL | 999 ug/mL | 989 ug/mL | 5.9 | 7.89 | 0.010 | 21 | 9 | 5 | pIC50 (Molt-4 cells): 6.70; metabolic stability (in words) [2]: improved; solubility (in words) [3]: improved; Vd (in words) (Rat PK (i.v./p.o.)): low; exposure (in words) (Rat PK (i.v./p.o.)): good; in vivo CL (in words) (Rat PK (i.v./p.o.)): relatively low
7 | Cc1nc2nc(CO)nn2c(O)c1Cc1ccc(C(C)(C)C)cc1 [Compound 39] |  |  |  |  |  |  |  |  |  |  |  |  | In-vitro Precipitation Time (Visual assessment), SGF ([5]; simulated gastric fluid): SGF: 60 min; In-vitro Precipitation Time (Visual assessment), SIF ([5]; simulated intestinal fluid): SIF: >240 min; Solubility pH 4 [3]: 0.024 mg/ml; Solubility pH 7.4 [3]: 0.26 mg/ml; Solubility pH 9 [3]: 1 mg/ml; increase in oral bioavailability (Rat PK (i.v./p.o.)): approximately 4 fold; % F (p.o.) (Rat PK (i.v./p.o.)): 43%; Oral AUC/D (Rat PK (i.v./p.o.)): 0.32 ug · hr/ml/(mg/kg)
8 | COCc1nc2nc(C)c(Cc3ccc(C(C)(C)C)cc3)c(O)n2n1 [Compound 41] |  |  |  |  |  |  |  |  | 0.010 | 171 | 15 | 8 | 
9 | Cc1nc2nc(OCCO)nn2c(O)c1Cc1ccc(C(C)(C)C)cc1 [Compound 42] |  |  |  |  |  |  |  |  | 0.010 | 373 | 7 | 4 | increase in solubility at pH 4 ([3]; compound 42 vs compound 40): ~7 fold; increase in solubility at pH 7.4 ([3]; compound 42 vs compound 40): ~30 fold; Solubility pH 4 [3]: 0.045 mg/ml; Solubility pH 7.4 [3]: 0.61 mg/ml; Solubility pH 9 [3]: 1 mg/ml; increase in oral bioavailability (Rat PK (i.v./p.o.)): 3 fold; % F (p.o.) (Rat PK (i.v./p.o.)): 43%; Oral AUC/D (Rat PK (i.v./p.o.)): 1.25 ug · hr/ml/(mg/kg)
